Experimental findings from patent US8435987B2, “Pyrazolo-pyridinone and pyrazolo-pyrazinone compounds as P38 modulators and methods of use thereof” (Amgen Inc., priority 2007, dated 2013) are described below.

Like-named read-outs stand apart in the source and are kept apart here.

In test [1] the test system is secreted IL-8 by whole blood activated with TNF-α. In words: Inhibition of TNF-α induced IL-8 in 50% human whole blood. It counts as cell-based. On the procedure: Inhibition of TNF-α Induced IL-8 in 50% Human Whole Blood
Test compounds were evaluated in vitro for the ability to inhibit the production of secreted IL-8 by whole blood activated with TNF-α. Fresh human whole blood was obtained from healthy, non-medicated volunteers in sodium heparin tubes.
Compound Dilution—Assay Procedure
Test compounds are serially diluted 1:3 in DMSO and then diluted 1:250 into R10 (RPMI 1640, 10% human serum AB, 1× pen/strep/glutamine) to the 4× working concentration to be used in the assay. 100 ul heparinized whole blood is plated into wells of 96 well flat bottom plates. 50 ul of either 4× compound or DMSO control (Final DMSO concentration is 0.1%) are added to the appropriate wells. Plates are incubated for 1 hour at 37 degrees Celsius. 50 ul of 4× TNF-α (4 nM TNF-α, for a final concentration of 1 nM) or control (media alone) is added to the appropriate wells (Total volume=200 ul). Plates are incubated overnight (16-18 hours). 100 ul of supernatant is collected and stored in 96-well round bottom polypropylene plates at −80 degrees Celsius or assayed immediately for IL-8.
Cytokines are measured on antibody (Ab) sandwich ECL based 96-well detection plates. 20 ul of supernatant are added to plate and plate is sealed and shaken at RT for 1 hour. 130 ul of detection Ab cocktail is added and plates are sealed and shaken for 1 hour in the dark at RT. Plates are read on MSD Sector HTS instrument. Data are analyzed and IC50 values generated using Activity Base and Xl-fit programs.

In test [2] the target is recombinant human p38α (Homo sapiens, UniProt Q16539). Kind of test: Purified and activated recombinant human p38α HTRF assay. Particulars: 1 nM p38α, 50 μM ATP, 100 nM GST-ATF2-Avitag, read-out: p3a IC550. The class given is biochemical. As to the method:
Purified and Activated Recombinant Human p38α Assay
• Kinase Reaction Buffer: Kinase reaction buffer for p38α HTRF assays consists of 50 mM Tris-pH 7.5, 5 mM MgCl2, 0.1 mg/mL BSA, 100 μM Na3VO4 and 0.5 mM DTT. • HTRF Detection Buffer: HTRF detection buffer contains 100 mM HEPES-pH 7.5, 100 mM NaCl, 0.1% BSA, 0.05% Tween-20, and 10 mM EDTA. • Serial Dilution of Compounds: Compounds were dissolved in 100% DMSO and serially diluted (3 fold, 10 point) in a polypropylene 96-well microtiter plate (drug plate). The final starting concentration of compounds in the p38a enzymatic assays was 1 μM. Columns 6 and 12 (HI controls and LO controls respectively) in the drug plate were reserved as controls and contained only DMSO. • Kinase Reaction: The p38α kinase reactions were carried out in a polypropylene 96-well black round bottom assay plate in total volume of 30 μL kinase reaction buffer. Appropriate concentration of purified and activated enzyme (recombinant human) was mixed with indicated concentration of ATP and 100 nM GST-ATF2-Avitag, in the presence or absence (HI control) of Compound. See table below for actual concentrations. In the absence of substrate, the background was measured as LO control. The reaction was allowed to incubate for 1 hour at RT. • Assay Reagent Concentrations: The final reagent concentrations were 1 nM p38α and 50 μM ATP. […] After 60 minutes incubation at room temperature, the assay plate was read in a Discovery Plate Reader. The wells were excited with coherent 320 nm light and the ratio of delayed ([…] post excitation) emissions at […] (native europium fluorescence) and 665 nm (europium fluorescence transferred to allophycocyanin—an index of substrate phosphorylation) was determined (Park et al, 1999). • Data Analysis: The proportion of substrate phosphorylated in the kinase reaction in the presence of compound compared with that phosphorylated in the presence of DMSO vehicle alone (HI control) was calculated using the formula: % control (POC)=(compound−average LO)/(average HI−average LO)*100. Data (consisting of POC and inhibitor concentration in μM) was fitted to a 4-parameter equation (y=A+((B−A)/(1+((x/C)AD))), where A is the minimum y (POC) value, B is the maximum y (POC), C is the x (compound concentration) at the point of inflection and D is the slope factor, using a Levenburg-Marquardt non-linear regression algorithm.
The inhibition constant (Ki) of the inhibitor was estimated from the IC50 (compound concentration at the point of inflection C) using the Cheng-Prussof equation: Ki=IC50/(1+S/Km), where S is the ATP substrate concentration, and Km is the Michaelis constant for ATP as determined experimentally. All results were expressed as the mean± the standard error of the mean. Data acquisition and non-linear regression algorithms were performed using Activity Base v5.2 and XL-fit software v4.1 respectively. All data was archived using Activity Base v5.2 software.
Background: In TR-FRET formats the signal depends on donor and acceptor labels being close together.

The test system of test [3] is TNF-α secretion by LPS-treated THP1 cells. Kind of test: Lipopolysaccharide-activated THP1 cell TNF production assay. The class given is cell-based. Particulars: Homo sapiens, THP-1, 3 hours, read-out: IC50 in the THP-1 cellular TNF production assay. As to the method: Lipopolysaccharide-Activated THP1 Cell TNF Production Assay
THP1 cells were resuspended in fresh THP1 media (RPMI 1640, 10% heat-inactivated FBS, 1×PGS, 1×NEAA, plus 30 μM βME) at a concentration of 1.5×10^6 cells per mL. One hundred microliters of cells per well were plated in a polystyrene 96-well tissue culture plate. 1.5 micrograms per mL of bacterial LPS was prepared in THP1 media and transferred to the first 11 columns of a 96-well polypropylene plate. Column 12 contained only THP1 media for the LO control. Compounds were dissolved in 100% DMSO and serially diluted 3 fold in a polypropylene 96-well microtiter plate (drug plate). Columns 6 and 12 were reserved as controls (HI controls and LO controls respectively) and contained only DMSO. 10 μL of LPS followed by one microliter of inhibitor compound from the drug plate was transferred to the cell plate. The treated cells were induced to synthesize and secrete TNF-α in a 37° C. humidified incubator with 5% CO2 for 3 hours. Fifty microliters of conditioned media was transferred to a 96-well MULTI-ARRAY™ 96-well small spot plate—custom coated with MAB610 containing 100 μL of 2× Read Buffer P supplemented with 0.34 nM AF210NA polyclonal Ab labeled with ruthenium (MSD-Sulfo-TAG™—NHS ester). After an overnight incubation at room temperature with shaking, the reaction was read on the Sector Imager™ 6000. […] The amount of secreted TNF-α in the presence of AMG compounds compared with that in the presence of DMSO vehicle alone (HI control) was calculated using the formula: % control (POC)=(cpd−average LO)/(average HI−averageLO)*100. Data (consisting of POC and inhibitor concentration in μM) was fitted to a 4-parameter equation (y=A+((B−A)/(1+((x/C)^D))), where A is the minimum y (POC) value, B is the maximum y (POC), C is the x (cpd concentration) at the point of inflection and D is the slope factor) using a Levenburg-Marquardt non-linear regression algorithm.

Where [4] appears, read: 50% human whole blood, TNF-α (1 nM final) induced IL-8, 16-18 hours, read-out: WB TNF/IL8 IC50.
Setting [5] is: Homo sapiens, read-out: IC50, TNF-α induced IL-8 in 50% human whole blood.

recombinant human p38α, sequence (Q16539 whole entry): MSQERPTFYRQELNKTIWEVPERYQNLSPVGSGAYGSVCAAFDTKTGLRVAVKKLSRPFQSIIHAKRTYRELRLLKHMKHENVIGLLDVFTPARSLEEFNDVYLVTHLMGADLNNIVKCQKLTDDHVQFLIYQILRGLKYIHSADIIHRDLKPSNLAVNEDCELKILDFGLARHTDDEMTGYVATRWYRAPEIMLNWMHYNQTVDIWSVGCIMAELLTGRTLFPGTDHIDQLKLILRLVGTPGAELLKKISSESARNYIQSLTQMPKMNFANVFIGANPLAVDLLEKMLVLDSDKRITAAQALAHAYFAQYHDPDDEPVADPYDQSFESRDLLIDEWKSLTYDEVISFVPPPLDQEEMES

As for `Cc1ccc2c(NC3CC3)noc2c1-c1nc2cnn(-c3ccc(F)cc3F)c2n(C)c1=O` [Example 10, 5-(3-(cyclopropylamino)-6-methyl-1,2-benzisoxazol-7-yl)-1-(2,4-difluorophenyl)-7-methyl-1,7-dihydro-6H-pyrazolo[3,4-b]pyrazin-6-one], the IC50 in test [1] (setting [4]) is 8.9 nM.
For the compound `Cc1ccc2c(NC3CC3)noc2c1-c1cc2cnn(-c3cc(F)ccc3F)c2n(C)c1=O` [Example 6, 5-(3-(cyclopropylamino)-6-methyl-1,2-benzisoxazol-7-yl)-1-(2,5-difluorophenyl)-7-methyl-1,7-dihydro-6H-pyrazolo[3,4-b]pyridin-6-one], the IC50 in test [2] was 8.9 nM; in test [1] (setting [4]) it was 1.6 nM; in test [1] (setting [5]), not above 100 nM; in test [3] it was not above 100 nM.
Consider `CCn1c(=O)c(-c2c(C)ccc3c(NC4CC4)noc23)cc2cnn(-c3ccccc3F)c21` [Example 7, 5-(3-(cyclopropylamino)-6-methyl-1,2-benzisoxazol-7-yl)-7-ethyl-1-(2-fluorophenyl)-1,7-dihydro-6H-pyrazolo[3,4-b]pyridin-6-one], for which the IC50 in test [2] is 2 nM; in test [1] (setting [4]), 1.3 nM; in test [1] (setting [5]), not above 100 nM; in test [3] it was not above 100 nM.
Consider `CNc1noc2c(-c3nc4cnn(-c5ccc(F)cc5F)c4n(C)c3=O)c(C)ccc12` [Example 2, 1-(2,4-difluorophenyl)-7-methyl-5-(6-methyl-3-(methylamino)benzo[d]isoxazol-7-yl)-1H-pyrazolo[4,3-b]pyrazin-6(7H)-one], for which the values for the IC50 in test [2], in test [1] (setting [5]) and in test [3] were 28.5 nM, not above 100 nM and not above 100 nM, respectively.
For `Cc1ccc2c(NC3CC3)noc2c1-c1nc2cnn(-c3c(F)cccc3F)c2n(C)c1=O` [Example 9, 5-(3-(cyclopropylamino)-6-methyl-1,2-benzisoxazol-7-yl)-1-(2,6-difluorophenyl)-7-methyl-1,7-dihydro-6H-pyrazolo[3,4-b]pyrazin-6-one], the IC50 in test [1] (setting [4]) is 8 nM.
As to `Cc1ccc2c(NC3CC3)noc2c1-c1cc2cnn(-c3ccc(F)cc3F)c2n(C)c1=O` [Example 8, 5-(3-(cyclopropylamino)-6-methyl-1,2-benzisoxazol-7-yl)-1-(2,4-difluorophenyl)-7-methyl-1,7-dihydro-6H-pyrazolo[3,4-b]pyridin-6-one], the IC50 in test [2] was 4.4 nM; in test [1] (setting [4]), 1.8 nM; in test [1] (setting [5]) it was not above 100 nM; in test [3], not above 100 nM.
